The text below walks through data of PubChem BioAssay AID179 (DTP/NCI, 2004).

As a reminder, the EC50 is the concentration needed to bring the measured effect to its halfway point. As usually defined, the IC50 is the concentration that inhibits the measured activity by half. A low value points to inhibition by little substance.

Values joined by “and” are separate entries in the source; they are usually repeats but may differ in a detail not shown here. Equal entries are not always repeated. Active and inactive are the calls of the source.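 How the source made its calls: active means compounds giving half or more protection of infected cells from virus-caused growth loss, again on retest; inactive means the rest.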

This assay relates to CEM cells HIV-1 protection, formazan growth assay. As to the kind of experiment: NCI AIDS Antiviral Assay. The following applies: for IC50: measured here: growth of uninfected CEM cells. The essentials: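 Human CEM cells, uninfected and HIV-1-infected, exposed to five drug concentrations; growth measured by soluble formazan assay and scored as percent protection from infection, with protecting compounds retested.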

In the case of `CN(CC1=C(O)C(=O)C(CN(C)Cc2c(O)ccc3ccccc23)=C(O)C1=O)Cc1c(O)ccc2ccccc12`, the EC50 was over 17.4 µM and the IC50 is over 17.4 µM.

On to `CCOC(=O)[C@@H]1CCN2CN(c3ccc(OC)cc3)N=C(c3ccccc3)[C@@]12c1ccccc1`, for which the EC50 is over 200 µM and the IC50 is 18.2 µM.

As for `COc1cccc2ccc3c(c12)C(O)OC31CCc2c(C)cccc21` (configuration not stated), the EC50 is over 85.1 µM and the concentration for half-maximal inhibition (IC50) was determined as 42.7 µM.

With `CC1OC(OC2C(Oc3cc(O)c4c(=O)cc(-c5ccc(O)cc5)oc4c3)OC(CO)C(O)C2O)C(O)C(O)C1O` (configuration not stated), the EC50 is over 427 µM and the concentration for half-maximal inhibition (IC50) is over 427 µM.

On to `COc1ccc(/C=c2\c(=O)[nH]c3nc4ccccc4c(=O)n23)cc1`, for which the EC50 was over 200 µM and the 50% inhibitory concentration (IC50) was found to be 34.7 µM.

Turning to `C/C(=C\C(=O)c1ccc(Sc2ccccc2)cc1)c1ccc(Sc2ccccc2)cc1`, the EC50 is over 200 µM and the IC50 turned out to be 102 µM.

For `COC(=O)C1=C(C(=O)OC)C2(C3=C(C)C(=O)c4ccccc43)CCC1(C)O2` (configuration not stated), the EC50 is over 97.7 µM and the concentration for half-maximal inhibition (IC50) stood at 52.5 µM.

For `Cc1ccnc(NC(=O)Nc2cc(F)ccc2F)c1`, the EC50 is over 200 µM and the IC50 is over 200 µM.

On to `O=Nc1c(O)[nH]c(=S)[nH]c1=O`, for which the EC50 was over 148 µM and the half-maximal inhibitory concentration (IC50) was determined as 115 µM.

Take `CCOc1cccc2sc(N)nc12`: the result was inactive.

For `COc1ccc(C2=C(N)c3ccccc3C2=O)cc1`, the EC50 was over 200 µM and the IC50 is over 200 µM.

For `CC(=O)Nc1ccc(NS(=O)(=O)c2ccc3nc(C)n(NS(=O)(=O)c4ccc(NC(C)=O)cc4)c(=O)c3c2)cc1`, the EC50 was over 200 µM and the IC50 is over 200 µM.

As to `COc1cc2c[n+](C)c3c4cc(OC)c(OC(C)C)cc4ccc3c2cc1OC`, the EC50 is over 295 µM and the IC50 amounted to 13.5 µM.

Take `CCOC(=O)C(NC(=O)c1cccc(Cl)c1)(Nc1ccc(S(=O)(=O)Nc2cc(C)on2)cc1)C(F)(F)F` (configuration not stated): the EC50 is over 200 µM and the IC50 is 155 µM.

For `COc1ccc(-c2cc(=O)c3c(OC)c(OC)c(OC)cc3o2)cc1`, the EC50 was over 129 µM and the concentration for half-maximal inhibition (IC50) was found to be 41.7 µM.

On to `COC(=O)/C(C#N)=C(/NCc1ccccc1)Nc1ccccc1`, for which the EC50 was over 200 µM and the 50% inhibitory concentration (IC50) came out at 22.4 µM.

Turning to `Nc1n[n+]([O-])c2ccc(Cl)cc2[n+]1[O-]`, the EC50 is over 200 µM and the half-inhibitory concentration (IC50) worked out at 3.55 µM.

Regarding `CCOc1cc2ccc3c4cc(OC)c(OC)cc4cnc3c2cc1OCC`, the EC50 was over 36.3 µM and the IC50 was over 36.3 µM.

For the molecule `O=C(O)CCC(NC(=O)c1ccc(Nc2nc3ccccc3nc2C(=O)O)cc1)C(=O)O` (configuration not stated), the EC50 was over 200 µM and the IC50 was over 200 µM.

For `CN1CCC2CCCCN2CC1=O` (configuration not stated), the EC50 is over 1150 µM and the IC50 was over 1150 µM.

Consider `c1ccc(COc2cccc3ccc[n+](Cc4ccccc4)c23)cc1`, for which the EC50 is over 251 µM and the concentration for half-maximal inhibition (IC50) worked out at 4.68 µM.

Turning to `O=C1OCC(Cc2ccc3c(c2)OCO3)[C@H]1Cc1ccc(O)cc1` (some centres not stated), the EC50 is over 200 µM and the IC50 was 66.1 µM.

In the case of `CCOC(=O)C1=C(C)N(NC(=O)OC)C2(N)N(NC(=O)OC)C(C)=C(C(=O)OCC)C12C#N` (configuration not stated), the EC50 is over 537 µM and the IC50 was over 537 µM.

Regarding `O=[N+]([O-])c1cccc(/C=N/NC2=CS(=O)(=O)C=C2)c1`, the EC50 was over 67.6 µM and the half-inhibitory concentration (IC50) is over 67.6 µM.

Regarding `CC1(C)OC2=C(CC1Br)C(=O)C(=O)c1ccccc12` (configuration not stated), the EC50 is over 2 µM and the IC50 was 1.26 µM.

Turning to `Cn1cc(NC(=O)c2cc([N+](=O)[O-])cn2C)cc1C(=O)Nc1cc(S(=O)(=O)O)c2cc(S(=O)(=O)O)cc(S(=O)(=O)O)c2c1`, the EC50 is 275 µM and the IC50 came to 347 µM.

For the molecule `Cc1ccc(S(=O)(=O)N/N=C(\CCN2CCCC2)CC(c2ccccc2)c2c(O)c3ccccc3oc2=O)cc1` (configuration not stated), the EC50 was over 12 µM and the IC50 is over 12 µM.

As to `COc1ccc(-c2c(C(C)=O)c(-c3ccccc3)n(C3OC(COC(C)=O)C(OC(C)=O)C(OC(C)=O)C3OC(C)=O)c(=S)c2C#N)cc1` (configuration not stated), the EC50 is over 200 µM and the IC50 is 123 µM.

For `CC(C)(C)C1=Cc2cc3cc(C(C)(C)C)[nH]c(=O)c3cc2S(=O)(=O)N1`, the EC50 was over 7.59 µM and the IC50 was over 7.59 µM.

As for `CSc1nc(-c2ccc(Cl)cc2)c(C#N)c(=O)n1C1OC(COC(C)=O)C(OC(C)=O)C(OC(C)=O)C1OC(C)=O` (configuration not stated), the EC50 is over 132 µM; the IC50 is 32.4 µM and 89.1 µM.

On to `O=C(O)c1ccccc1/C=N\NC1=NCCN1`, for which the EC50 was 69.2 µM and the IC50 was found to be 115 µM.

With `COc1cccc(C2SC(N)=Nc3c2c(C)nn3C(=O)Cc2ccccc2)c1` (configuration not stated), the EC50 is 79.4 µM and the half-inhibitory concentration (IC50) is 129 µM.

On to `CCC(OCc1ccccc1)/C(C)=C/CC(C)C=C(Br)Br` (configuration not stated), for which the EC50 was over 933 µM and the concentration for half-maximal inhibition (IC50) amounted to 891 µM.

For the molecule `Cc1cc(-c2ccc[nH]2)on1`, the EC50 was over 200 µM and the half-inhibitory concentration (IC50) is over 200 µM.

As to `C=CCC1C(O[Si](C)(C)C(C)(C)C)C(CO[Si](C)(C)C(C)(C)C)OC1n1ccc(=O)[nH]c1=O` (configuration not stated), the EC50 is over 200 µM and the IC50 is 2.75 µM.

Consider `NC(=O)N1N=C2c3ccccc3CC[C@@H]2C1c1ccccc1` (some centres not stated), for which the result was inactive.

Take `COc1c(O)c2c(=O)cc3c4c5c(cc(=O)c6c(O)c(OC)c(CC(C)O)c(c(c1CC(C)O)c24)c65)OCO3` (configuration not stated): the EC50 was over 24 µM and the IC50 is 0.832 µM.

`Cc1cn(COCCSCc2ccccc2)c(=O)[nH]c1=O` showed an EC50 of 58.9 µM and an IC50 of over 200 µM.

`Nc1cc(N)c(N=Nc2ccc(/C=C/c3ccc(N=Nc4c(N)cc(N)cc4C(=O)O)cc3S(=O)(=O)O)c(S(=O)(=O)O)c2)c(C(=O)O)c1`: the concentration giving a half-maximal response (EC50) was over 178 µM and the IC50 was found to be 170 µM.

For the molecule `CCNC(CCCC(NCC)P(=O)(O)O)P(=O)(O)O` (configuration not stated), the outcome was inactive.

As for `C=CCn1c(=S)sc2c(=O)[nH]cnc21`, the EC50 was over 1120 µM and the IC50 stood at 195 µM.

For the molecule `Cc1cc2c3ccccc3nc2c2cc[nH]c(C)c12`, the EC50 was over 110 µM and the IC50 turned out to be 5.25 µM.

On to `O=C(O)CSc1n[nH]c(-c2ccccc2)n1`, for which the EC50 was over 30.9 µM and the IC50 is 7.59 µM.

For `CSCCC(NC(c1ccccc1)c1ccccc1)[P+](=O)O` (configuration not stated), the EC50 was over 200 µM and the half-maximal inhibitory concentration (IC50) is over 200 µM.

Consider `CCOC(=O)c1ccc(C(=O)n2ccnc2)[nH]1`, for which the EC50 was over 200 µM and the concentration for half-maximal inhibition (IC50) is over 200 µM.

Turning to `CC(=O)C1(C)CC(C#N)(C#N)C(C#N)=C1N` (configuration not stated), the EC50 was over 200 µM and the IC50 is over 200 µM.

Turning to `C#Cc1ccccc1C(=O)OC`, the EC50 is over 251 µM and the half-inhibitory concentration (IC50) was over 251 µM.

For the molecule `COc1cc2c(cc1OC)C1CC(=O)C(CCCCCCC3CN4CCc5cc(OC)c(OC)cc5C4CC3=O)CN1CC2` (configuration not stated), the result was inactive.

As to `Cc1ccc2c(c1)C(=S)N1CSCC1c1nncn1-2` (configuration not stated), the EC50 is over 200 µM and the IC50 was over 200 µM.

As to `Cc1ccccc1NC(=O)C(=O)CC(=O)c1sc(Nc2ccccc2[N+](=O)[O-])nc1C`, the EC50 is over 200 µM and the half-maximal inhibitory concentration (IC50) was over 200 µM.

In the case of `O=c1[nH]c2ccccc2c(=O)n1CCCN1CCN(c2cccc(Cl)c2)CC1`, the EC50 is over 200 µM and the 50% inhibitory concentration (IC50) is 50.1 µM.

Regarding `CCCCCCCCCCCCCCCCOP(=O)(O)OCC(N)C(=O)O` (configuration not stated), the EC50 is over 200 µM and the half-maximal inhibitory concentration (IC50) was 18.6 µM.

Turning to `Cc1cc(S(=O)(=O)Nc2n[nH]c(=O)n2-c2ccccc2)c(S)cc1Cl`, the EC50 was 155 µM and the IC50 was over 200 µM.

On to `COc1ccc(NC(=O)C(=O)NO)c(OC)c1`, for which the EC50 is over 537 µM and the half-inhibitory concentration (IC50) stood at 234 µM.

As for `O=C(/C=C/c1cc(Cl)cc(Cl)c1O)c1cccc(O)c1`, the result was inactive.

As for `O=C(/C=C/c1cccc(Br)c1)c1ccccc1`, the EC50 is over 13.2 µM and the concentration for half-maximal inhibition (IC50) is over 13.2 µM.

Turning to `O=S(=O)(O)CCS`, the EC50 was over 200 µM and the IC50 is over 200 µM.

`CC1(C)O[C@@H]2[C@@H]3OC(=O)C[C@@H]3[C@@H](COCc3ccccc3)[C@@H]2O1`: the EC50 is over 200 µM and the IC50 is over 200 µM.

On to `COC(=O)[C@@H]1C=C[C@H](OC2OC(COC(C)=O)C(OC(C)=O)C(OC(C)=O)C2OC(C)=O)n2c(=O)n(-c3ccccc3)c(=O)n21` (some centres not stated), for which the EC50 is over 200 µM and the IC50 was found to be 1.07 µM.

Consider `O=C(OCc1ccccc1)N1CC[C@@H](O)[C@H]1CO`, for which the EC50 was over 200 µM and the IC50 is over 200 µM.

As for `Cc1cn(C2CCCCC2O)c(=O)[nH]c1=O` (configuration not stated), the EC50 is over 302 µM and the IC50 was over 302 µM.

With `CC(C)[Si](OC12CCC(CC1O)CC2C(=O)O)(C(C)C)C(C)C` (configuration not stated), the EC50 is over 200 µM and the 50% inhibitory concentration (IC50) worked out at 22.4 µM.

`Cc1ccc2nc(NC(=O)C(=O)C(C#N)c3ccc(Cl)cc3)sc2c1` (configuration not stated): the EC50 was over 49 µM and the IC50 was over 49 µM.

On to `NS(=O)(=O)c1ccc(NC(=S)/N=C\C(C(=O)c2ccccc2)=C(\O)c2ccccc2)cc1`, for which the EC50 was over 200 µM and the 50% inhibitory concentration (IC50) stood at 105 µM.

Regarding `OC(/C=C/c1ccccc1)Cc1nc2ccccc2[nH]1` (configuration not stated), the EC50 is over 38 µM and the IC50 is over 38 µM.

Turning to `Oc1[nH]c2ccccc2c1N=Nc1nc(-c2ccccc2)cs1`, the EC50 was over 200 µM and the IC50 was over 200 µM.

Take `COC(C/C(=C/CO[Si](C(C)C)(C(C)C)C(C)C)C(=O)N(C(=O)OC(C)(C)C)c1ccccc1I)OC`: the EC50 was over 200 µM and the half-maximal inhibitory concentration (IC50) was found to be 77.6 µM.

As for `CCCNCC(O)COc1ccc2c3c(c(=O)oc2c1)CCC3` (configuration not stated), the EC50 is over 200 µM and the IC50 came out at 87.1 µM.

`CC(C)=CCCC(O)C1CCC2C3CCC4CCCCC4(C)C3CCC12C` (configuration not stated): the EC50 was over 100 µM and the 50% inhibitory concentration (IC50) stood at 87.1 µM.

Take `CCCCNC(=S)/N=C/c1c(O)c2ccccc2oc1=O`: the EC50 was over 200 µM and the IC50 came out at 182 µM.

In the case of `CCOC(=O)C1Cc2cc(C)c(C)cc2N(C)C1=O` (configuration not stated), the EC50 was over 200 µM and the IC50 was over 200 µM.
